Assays:
[1] = test system: Bacillus subtilis C-3102 (FERM BP-1096); experiment: Influence of the concentration of germination inducer on turbidity change (Example 2); type: cell-based; details: for turbidity (630 nm): 37° C., 150 rpm
Description: Next, 500 μL aliquots of bacterial suspension of Bacillus subtilis C-3102 (FERM BP-1096) used in Example 1 were mixed with 500 μL of ferulic acid, or vanillic acid solutions described above, and the mixtures were adjusted to ferulic acid (10 to 600 ppm), or vanillic acid (10 to 1800 ppm) concentrations set forth in Table 2. The concentrations of ferulic acid at the reaction initiation were 10, 100, 300, and 600 ppm, and the concentrations of vanillic acid at the reaction initiation were 10, 100, 300, 600, 1200, and 1800 ppm.
As same as Example 1, defining the time point of mixing the bacterial suspension with the solution of ferulic acid, or vanillic acid as the reaction initiation (0 min), and continuing shaking (150 rpm) at 37° C., the absorbance (630 nm) was measured at 10, 20, 30, 40, 50, 60, 90, 120, and 180 min after the reaction initiation.

[2] = test system: Bacillus subtilis C-3102 (FERM BP-1096); experiment: Germination induction by ferulic acid, vanillic acid or p-coumaric acid at 300 ppm, turbidity change (Example 3); type: cell-based; details: for turbidity (630 nm): 37° C., 150 rpm
Description: In each 500 mL of distilled water heated to 70° C. was added 0.3 g of ferulic acid, vanillic acid, or p-coumaric acid. After dissolving with stirring using a stirring rod with a propeller, filtration sterilization (0.45 μm filter) was conducted to prepare each 600 ppm-solution.
Next, 500 μL aliquots of bacterial suspension of Bacillus subtilis C-3102 (FERM BP-1096) prepared by a similar method as in Example 1 were mixed with 500 μL of each of the ferulic acid, vanillic acid, and p-coumaric acid solutions, and the mixtures were adjusted to 300 ppm of ferulic acid, vanillic acid, or p-coumaric acid concentration. Defining the time point of mixing as the reaction initiation (0 min), and continuing shaking (150 rpm) at 37° C., the turbidity (630 nm) was measured at 10, 20, 30, 40, 50, 60, 90, 120, and 180 min after the reaction initiation.

C-3102 strain = experiment: Long time culture of spore suspension with inducer, turbidity up to 24 hours (proliferation check, Example 4); type: cell-based, Bacillus subtilis; details: 500 μL spore suspension + 500 μL of 600 ppm solution
Description: This Example is an experiment to examine whether proliferation is recognizable or not, when ferulic acid or vanillic acid is mixed with a spore suspension of the C-3102 strain and cultured for a long time period.
The C-3102 strain was cultured on a nutrient plate at 37° C. for 3 days, and thereafter bacterial cells were collected by a bacteria spreader and a spore suspension was prepared similarly as in Example 1 (OD 630=1.0). After mixing 500 μL of the C-3102 spore suspension with 500 μL of a 600 ppm-ferulic acid solution, or a 600 ppm-vanillic acid solution, change in the turbidity (630 nm) up to 24 hours was examined.

Compound: COc1cc(C(=O)O)ccc1O [Vanillic acid, vanillic acid]
- turbidity (630 nm) ([1]; vanillic acid 10 ppm, 0 min after reaction initiation): 0.590
- turbidity (630 nm) ([1]; vanillic acid 10 ppm, 10 min after reaction initiation): 0.558
- turbidity (630 nm) ([1]; vanillic acid 10 ppm, 20 min after reaction initiation): 0.548
- turbidity (630 nm) ([1]; vanillic acid 10 ppm, 30 min after reaction initiation): 0.539
- turbidity (630 nm) ([1]; vanillic acid 10 ppm, 40 min after reaction initiation): 0.527
- turbidity (630 nm) ([1]; vanillic acid 10 ppm, 50 min after reaction initiation): 0.514
- turbidity (630 nm) ([1]; vanillic acid 10 ppm, 60 min after reaction initiation): 0.497
- turbidity (630 nm) ([1]; vanillic acid 10 ppm, 90 min after reaction initiation): 0.472
- turbidity (630 nm) ([1]; vanillic acid 10 ppm, 120 min after reaction initiation): 0.437
- turbidity (630 nm) ([1]; vanillic acid 10 ppm, 180 min after reaction initiation): 0.338
- turbidity (630 nm) ([1]; vanillic acid 100 ppm, 0 min after reaction initiation): 0.584
- turbidity (630 nm) ([1]; vanillic acid 100 ppm, 10 min after reaction initiation): 0.557
- turbidity (630 nm) ([1]; vanillic acid 100 ppm, 20 min after reaction initiation): 0.553
- turbidity (630 nm) ([1]; vanillic acid 100 ppm, 30 min after reaction initiation): 0.537
- turbidity (630 nm) ([1]; vanillic acid 100 ppm, 40 min after reaction initiation): 0.526
- turbidity (630 nm) ([1]; vanillic acid 100 ppm, 50 min after reaction initiation): 0.501
- turbidity (630 nm) ([1]; vanillic acid 100 ppm, 60 min after reaction initiation): 0.491
- turbidity (630 nm) ([1]; vanillic acid 100 ppm, 90 min after reaction initiation): 0.470
- turbidity (630 nm) ([1]; vanillic acid 100 ppm, 120 min after reaction initiation): 0.433
- turbidity (630 nm) ([1]; vanillic acid 100 ppm, 180 min after reaction initiation): 0.315
- turbidity (630 nm) ([1]; vanillic acid 300 ppm, 0 min after reaction initiation): 0.572
- turbidity (630 nm) ([1]; vanillic acid 300 ppm, 10 min after reaction initiation): 0.555
- turbidity (630 nm) ([1]; vanillic acid 300 ppm, 20 min after reaction initiation): 0.543
- turbidity (630 nm) ([1]; vanillic acid 300 ppm, 30 min after reaction initiation): 0.538
- turbidity (630 nm) ([1]; vanillic acid 300 ppm, 40 min after reaction initiation): 0.526
- turbidity (630 nm) ([1]; vanillic acid 300 ppm, 50 min after reaction initiation): 0.507
- turbidity (630 nm) ([1]; vanillic acid 300 ppm, 60 min after reaction initiation): 0.501
- turbidity (630 nm) ([1]; vanillic acid 300 ppm, 90 min after reaction initiation): 0.452
- turbidity (630 nm) ([1]; vanillic acid 300 ppm, 120 min after reaction initiation): 0.381
- turbidity (630 nm) ([1]; vanillic acid 300 ppm, 180 min after reaction initiation): 0.235
- turbidity (630 nm) ([1]; vanillic acid 600 ppm, 0 min after reaction initiation): 0.566
- turbidity (630 nm) ([1]; vanillic acid 600 ppm, 10 min after reaction initiation): 0.568
- turbidity (630 nm) ([1]; vanillic acid 600 ppm, 20 min after reaction initiation): 0.561
- turbidity (630 nm) ([1]; vanillic acid 600 ppm, 30 min after reaction initiation): 0.540
- turbidity (630 nm) ([1]; vanillic acid 600 ppm, 40 min after reaction initiation): 0.512
- turbidity (630 nm) ([1]; vanillic acid 600 ppm, 50 min after reaction initiation): 0.499
- turbidity (630 nm) ([1]; vanillic acid 600 ppm, 60 min after reaction initiation): 0.488
- turbidity (630 nm) ([1]; vanillic acid 600 ppm, 90 min after reaction initiation): 0.447
- turbidity (630 nm) ([1]; vanillic acid 600 ppm, 120 min after reaction initiation): 0.390
- turbidity (630 nm) ([1]; vanillic acid 600 ppm, 180 min after reaction initiation): 0.262
- turbidity (630 nm) ([1]; vanillic acid 1200 ppm, 0 min after reaction initiation): 0.567
- turbidity (630 nm) ([1]; vanillic acid 1200 ppm, 10 min after reaction initiation): 0.559
- turbidity (630 nm) ([1]; vanillic acid 1200 ppm, 20 min after reaction initiation): 0.551
- turbidity (630 nm) ([1]; vanillic acid 1200 ppm, 30 min after reaction initiation): 0.548
- turbidity (630 nm) ([1]; vanillic acid 1200 ppm, 40 min after reaction initiation): 0.520
- turbidity (630 nm) ([1]; vanillic acid 1200 ppm, 50 min after reaction initiation): 0.509
- turbidity (630 nm) ([1]; vanillic acid 1200 ppm, 60 min after reaction initiation): 0.496
- turbidity (630 nm) ([1]; vanillic acid 1200 ppm, 90 min after reaction initiation): 0.474
- turbidity (630 nm) ([1]; vanillic acid 1200 ppm, 120 min after reaction initiation): 0.456
- turbidity (630 nm) ([1]; vanillic acid 1200 ppm, 180 min after reaction initiation): 0.419
- turbidity (630 nm) ([1]; vanillic acid 1800 ppm, 0 min after reaction initiation): 0.579
- turbidity (630 nm) ([1]; vanillic acid 1800 ppm, 10 min after reaction initiation): 0.562
- turbidity (630 nm) ([1]; vanillic acid 1800 ppm, 20 min after reaction initiation): 0.549
- turbidity (630 nm) ([1]; vanillic acid 1800 ppm, 30 min after reaction initiation): 0.538
- turbidity (630 nm) ([1]; vanillic acid 1800 ppm, 40 min after reaction initiation): 0.519
- turbidity (630 nm) ([1]; vanillic acid 1800 ppm, 50 min after reaction initiation): 0.510
- turbidity (630 nm) ([1]; vanillic acid 1800 ppm, 60 min after reaction initiation): 0.498
- turbidity (630 nm) ([1]; vanillic acid 1800 ppm, 90 min after reaction initiation): 0.472
- turbidity (630 nm) ([1]; vanillic acid 1800 ppm, 120 min after reaction initiation): 0.453
- turbidity (630 nm) ([1]; vanillic acid 1800 ppm, 180 min after reaction initiation): 0.420
- germination induction versus concentration ([1]; vanillic acid of 10 to 1800 ppm): germination was inducted at any concentration to the same extent
- germination confirmed by turbidity decrease [2]: decreased, thereby to confirm germination
- turbidity (630 nm) ([2]; 0 min after reaction initiation): 0.542
- turbidity (630 nm) ([2]; 10 min after reaction initiation): 0.525
- turbidity (630 nm) ([2]; 20 min after reaction initiation): 0.506
- turbidity (630 nm) ([2]; 30 min after reaction initiation): 0.485
- turbidity (630 nm) ([2]; 40 min after reaction initiation): 0.467
- turbidity (630 nm) ([2]; 50 min after reaction initiation): 0.450
- turbidity (630 nm) ([2]; 60 min after reaction initiation): 0.409
- turbidity (630 nm) ([2]; 90 min after reaction initiation): 0.379
- turbidity (630 nm) ([2]; 120 min after reaction initiation): 0.356
- turbidity (630 nm) ([2]; 180 min after reaction initiation): 0.282
- turbidity (630 nm) (C-3102 strain; reaction time 0 hr): 0.575
- turbidity (630 nm) (C-3102 strain; reaction time 0.5 hr): 0.540
- turbidity (630 nm) (C-3102 strain; reaction time 1 hr): 0.481
- turbidity (630 nm) (C-3102 strain; reaction time 1.5 hr): 0.426
- turbidity (630 nm) (C-3102 strain; reaction time 2 hr): 0.380
- turbidity (630 nm) (C-3102 strain; reaction time 3 hr): 0.316
- turbidity (630 nm) (C-3102 strain; reaction time 24 hr): 0.060

Reference: US20140308733A1, “METHOD FOR INDUCING GERMINATION OF SPORE FORMING BACTERIUM” (CALPIS CO., LTD., priority 2011, published 2014)
